Patent US9233913B2, “Amino acid derivatives for the treatment of neuropathic pain” (priority 2009, dated 2016)
Read-outs that look alike come from different tables or passages of the source.

How the values were obtained:
Gabapentin binding site [1] = target: T1, Gabapentin binding site (Rattus norvegicus, UniProt P54290); test: [3H]-gabapentin binding assay, Method 2 (crude rat brain membranes); conditions: 20 nM [3H]-gabapentin; for % inhibition 1 μM: compound 1 μM; for % inhibition 10 μM: compound 10 μM
T1 sequence (P54290 25-1091): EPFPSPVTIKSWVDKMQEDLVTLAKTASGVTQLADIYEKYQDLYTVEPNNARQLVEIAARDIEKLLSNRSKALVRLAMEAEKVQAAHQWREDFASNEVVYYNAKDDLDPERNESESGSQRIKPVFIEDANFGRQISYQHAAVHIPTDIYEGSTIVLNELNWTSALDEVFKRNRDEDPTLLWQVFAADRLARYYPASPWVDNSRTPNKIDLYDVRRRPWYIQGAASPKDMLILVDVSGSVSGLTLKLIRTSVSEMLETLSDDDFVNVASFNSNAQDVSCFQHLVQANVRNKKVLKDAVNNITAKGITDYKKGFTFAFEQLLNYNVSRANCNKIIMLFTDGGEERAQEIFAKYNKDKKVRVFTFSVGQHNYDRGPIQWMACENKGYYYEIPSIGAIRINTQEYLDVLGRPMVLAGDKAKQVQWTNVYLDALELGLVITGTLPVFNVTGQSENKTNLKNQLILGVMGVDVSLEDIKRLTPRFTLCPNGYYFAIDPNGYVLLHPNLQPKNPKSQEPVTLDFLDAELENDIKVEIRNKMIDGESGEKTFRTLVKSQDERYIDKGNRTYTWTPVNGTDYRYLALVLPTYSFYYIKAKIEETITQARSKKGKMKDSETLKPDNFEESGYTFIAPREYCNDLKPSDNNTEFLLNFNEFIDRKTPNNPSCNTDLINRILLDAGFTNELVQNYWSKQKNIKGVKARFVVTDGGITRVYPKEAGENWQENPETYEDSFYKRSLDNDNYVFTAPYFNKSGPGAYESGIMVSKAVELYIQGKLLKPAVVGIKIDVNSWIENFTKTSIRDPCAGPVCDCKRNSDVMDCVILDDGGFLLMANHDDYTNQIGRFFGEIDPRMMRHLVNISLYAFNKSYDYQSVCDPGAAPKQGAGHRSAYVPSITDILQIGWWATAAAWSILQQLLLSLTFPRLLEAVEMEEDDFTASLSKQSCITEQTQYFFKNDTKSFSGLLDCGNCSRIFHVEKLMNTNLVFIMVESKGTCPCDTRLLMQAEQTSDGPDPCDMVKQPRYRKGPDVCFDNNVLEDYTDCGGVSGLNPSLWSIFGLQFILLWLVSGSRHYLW
Procedure: Membrane preparation: cortices from 5 rats were homogenized in a 0.32 M sucrose solution containing 10 mM HEPES/KOH. Suspensions were centrifuged for 10 minutes at 2500×g and the supernatants were centrifuged at 48000×g for 20 minutes. […] The final pellets were re-suspended in 10 mM HEPES/KOH. Protein concentration was determined using a BCA kit from Pierce (Rockford, Ill.). The quality of the preparation was assessed in a binding assay to gabapentin.
Binding assay: in 96-well plates, the selected compounds were incubated in 10 mM HEPES/KOH pH 7.4 at concentrations of 10 and 1 μM for 30 minutes at room temperature in the presence of 20 nM [^3H]-gabapentin and rat brain membranes (300 μg/mL of proteins). Radioactivity was assessed after filtration with the Tomtec cell harvester using a glass fiber filter A. Counts were obtained using the Microbeat Trilux counter.
[formula] wherein: [total binding]s is the total binding of [^3H]-gabapentin in the presence of the compound; [non-specific binding]c is the non specific binding of [^3H]-gabapentin in the presence of 100 μM cold gabapentin (c=control); and [total binding]c is the total binding of [^3H]-gabapentin alone.

Gabapentin binding site [2] = target: T1, Gabapentin binding site; conditions: Method 1, rat brain membranes, 3H-gabapentin; for % inhibition 1 μM: compound 1 μM; for % inhibition 10 μM: compound 10 μM
Procedure: Materials: Gabapentin is from TRC, [^3H]-Gabapentin is from GE Healthcare, and Meltilex A sheets (melt-on scintillator sheets) are from Perkin Elmer. Rat brain membranes are prepared in-house by conventional methods.
All solutions are prepared for the assay just before use, except for the membrane dilution. […] The final compound concentration in the assay is 1, 10 and 100 μM. The same is done with a solution not containing the test articles as control. The test plate is then incubated for 30 minutes at room temperature with agitation. The binding reaction is terminated using a Tomtec cell harvester machine (Mach III M-FP-1). A meltilex sheet is placed on the filtermat (harvest from the assay) and is allowed to melt in the oven at 65° C. for 1 to 4 min. The filter is inserted in the plastic pouch, which is sealed and allowed to cool for 1 h before counting with a Microbeta Trilux counter (Perkin Elmer).
Results are calculated using the count per minutes (CPM) obtained for each sample with the Trilux. The CPM obtained for the control diluent represents the 100% binding of ^3H-Gabapentin to membrane. The CPM obtained for the control gabapentin 100 μM represents the 0% binding. The % of binding for each compound is calculated by the formula: […]

[3] = Pharmacokinetic profile in mice; format: in vivo; conditions: mouse, plasma, read-out: Bioavailability (% F)
Procedure: Compounds are tested for pharmacokinetic profile, including oral bioavailability in mice using the following procedure. Bioavailability estimates are performed after administration of 100 mg/kg of Compound 6B and 50 mg/kg of Compound 18 either Intravenously (IV) or orally (PO). Four animals per time point, per mode of administration are used. At each specific time point following drug administration, a blood sample is collected terminally (under isoflurane anesthesia) via cardiac puncture from each the 4 animals. Samples are collected at pre-dose and at 5, 15, 30, and 60 minutes and at 2, 4, 6, 8, 14 and 24 hours post oral administration and at pre-dose and 2, 5, 15, 30, and 60 minutes and 2, 4, 8, 14 and 24 hours post intravenous administration. Blood samples are collected into tubes containing K3-EDTA as anticoagulant, kept on ice until centrifugation at 4° C. at a minimum speed of 3000 rpm (1620G) for 10 min. Plasma samples are harvested into polypropylene tubes, immediately placed on dry ice and stored at −80° C.
Compounds in mouse plasma are extracted using protein precipitation. Quantitation of the compounds in mouse plasma matrix is achieved using LC-MS detection. Sample concentration is calculated using a calibration curve. FIGS. 3A and 3B show mouse PK curves in log scale for Compounds 6B and 18 respectively. […]

[4] = Pharmacokinetic profile in dogs; format: in vivo; conditions: one female Beagle dog
Procedure: The pharmacokinetic profile of Compound 18 is evaluated in one female Beagle dog. One single oral and one single IV dose of 25 mg/kg separated by a wash-out period are administered to the dog to get key preliminary information about the pharmacokinetics and oral bioavailability of Compound 18.

[5] = test system: Diet-Induced Obesity (DIO) mouse model; test: Diet-Induced Obesity (DIO) mouse model: glycemia, insulin, body weight; format: in vivo; conditions: DIO mice; 100 mg/kg BID oral gavage, 7 days
Procedure: The objective of this study is to determine the effect of the compounds of the invention, namely Compounds 6A, 6B and 18, glycemia, insulin and body weight gain in a Diet-Induced Obesity (DIO) mouse model. Results are compared with (2S,3R,4S)-4-hydroisoleucine (positive control) and vehicle (negative control).
C57BL/6 mice are tested at 17-18 weeks of age and fed a high fat diet (60% of calories from fat) for 8 weeks. Fasted glycemia and body weight values are used to randomize the mice into control and treatment groups (n=8). The animals are treated twice dally (BID) (once on 7th day) by oral gavage with 4-hydroxyisoleucine, Compounds 6A, 6B and 18 (100 mg per kg of body weight), and the control group receive vehicle (water) alone. The animals are treated for 7 days.
Oral glucose Tolerance Test (OGTT) is performed at 5 hours±30 minutes Post starvation (day 0 only) or Post AM test article administration (for day 7). Blood samples are collected via tail vein for glucose determination prior to glucose challenge (Pre-OGTT) and at 5, 10, 20, 30, 60, 90 and 120 minutes post-glucose administration. Glucose determination is perfomed using a hand held glucometer (Model OneTouch Ultra, LifeScan).
A second blood sample is also collected Pre-OGTT and at 5, 10, 60 and 120 minutes Post-OGTT for insulin determination. Insulin determination is done using an enzyme Immunoassay kit (Mecodia Ultrasensitive Mouse Insulin ELISA, ALPCO Diagnostics, Wndham, N.H.).
Body weight of the mice is measured at arrival, randomization, and on days 0, 3 and 7 of treatment. At the end of the study, the epididymal fat pads were isolated and weighed. Data are expressed as mean±SEM of body weight and mean±SEM of fat pad weight.

[6] = test system: metrazole-induced clonic convulsions and mortality; test: Metrazole-induced convulsions model; conditions: metrazole 100 mg/kg, 100% = score 9

| Structure (SMILES) | % inhibition 1 μM (Gabapentin binding site [1]) | % inhibition 10 μM (Gabapentin binding site [1]) | % inhibition 1 μM (Gabapentin binding site [2]) | % inhibition 10 μM (Gabapentin binding site [2]) | effect on glycemia compared to control [5] | other results |
| --- | --- | --- | --- | --- | --- | --- |
| N[C@H](C(=O)O)[C@@H]1CCCC[C@H]1O [Compound 18] | 21% (±3) | 6% (±1) | 87% | 90% | no effect | bioavailability ([3]; 50 mg/kg IV or PO): 88.4%; bioavailability ([4]; in vivo, 25 mg/kg oral and IV): 97%; absorption following oral administration ([4]; 25 mg/kg oral): rapidly and very well absorbed; first pass effect ([4]; 25 mg/kg oral): does not demonstrate any significant first pass effect; terminal half live ([4]; 25 mg/kg single dose): around 7 hours; % Prevention of convulsions in mice ([6]; dose 200 mg/kg): 67% |
| CN1C(=O)CN=C(c2ccccc2)c2cc(Cl)ccc21 [Diazepam, diazepam] |  |  |  |  |  | % Prevention of convulsions in mice ([6]; dose 1 mg/kg): 67% |
| N[C@@H](CC1CCCO1)C(=O)O (stereo partly shown) [Compound 6] |  |  | 82% | 92% |  |  |
| C[C@@H]([C@H](C)O)[C@H](N)C(=O)O [Compound 4-HO-Ile, (2S,3R,4S) 4-hydroxyisoleucine, reference compound] |  |  | 13% | 51% |  |  |
| N[C@@H](C[C@H]1CCCO1)C(=O)O [Compound 7] | 19% (±4) | 1% (±1) |  |  | neutral or beneficial effect | effect on insulin compared to control [5]: neutral or beneficial effect |
| N[C@@H](Cc1ccco1)C(=O)O [(2S)-Compound, (2S)-3-(2-furyl)alanine] | 61% (±8) | 16% (±3) |  |  |  |  |
| N[C@@H](C[C@@H]1CCCO1)C(=O)O [Compound 8] | 11% (±1) | 0% (±2) |  |  | neutral or beneficial effect | bioavailability ([3]; 100 mg/kg IV or PO): ~100%; effect on insulin compared to control [5]: neutral or beneficial effect |
| NCC1(CC(=O)O)CCCCC1 [Gabapentin] |  |  |  |  |  | % Prevention of convulsions in mice ([6]; dose 100 mg/kg): 67% |
